Ends that are not written are not given here.
Test system: cells of rat pituitary glands
Experiment: in vitro assay of growth hormone release from cultured rat pituitary cells, side-by-side with the hpGRF(1-40)-OH standard
Assay type: cell-based
Conditions: potency for GH release relative to hGRF(1-40)-OH standard = 1.0; equimolar concentrations; rat pituitary cell cultures; incubation 3 to 4 hours; ir GH by radioimmunoassay; limits in brackets
Description: To determine the relative effectiveness of certain representative synthetic peptides to promote the release of growth hormone, in vitro assays are carried out using synthetic hpGRF(1-40)-OH as a standard in side-by-side comparison with equimolar concentrations of the representative analogs which have been synthesized. Cultures are used which include cells of rat pituitary glands removed some three to five days previously. Such cultures are considered optimal for the secretion of growth hormone and are used for the comparative testing, in the general manner described in Vale et al. Endocrinology, 91, 562-572 (1972) and as more particularly described in Vale et al. Endocrinology, 112, 1553-1555 (1983). Incubation with the substance to be tested is carried out for 3 to 4 hours, and aliquots of the culture medium are removed and processed to measure their contents in immunoreactive GH(ir GH) by a well-characterized radioimmunoassay.

Row | Substance | In Vitro Potencies
1 | [N^a MeTyr^1, Ala^15, CMA^19, Nle^27, Asn^28 ]-hGRF(1-29)-NH2 | 7.07 (3.8-13.6)
2 | [N^a MeTyr^1, Ala^15, CML^17, Nle^27, Asn^28 ]-hGRF(1-29)-NH2 | 5.41 (3.5-8.3)
3 | [N^a MeTyr^1, Ala^15, CML^22, Nle^27, Asn^28 ]-hGRF(1-29)-NH2 | 7.18 (4.1-12.7)
4 | [N^a MeTyr^1, Ala^15, CML^23, Nle^27, Asn^28 ]-hGRF(1-29)-NH2 | 1.96 (1.1-3.3)
5 | [N^a MeTyr^1, Ala^15, CML^26, Nle^27, Asn^28 ]-hGRF(1-29)-NH2 | 6.44 (4.0-10.3)
6 | [N^a MeTyr^1, CMA^13, Ala^15, Nle^27, Asn^28 ]-hGRF(I-29)-NH2 | 2.24 (1.4-3.4)
7 | [N^a MeTyr^1, CML^5, Ala^15, Nle^27, Asn^28 ]-hGRF(1-29)-NH2 | 3.59 (2.3-5.5)
8 | hGRF(1-40)--OH: synthetic human pancreatic/hypothalamic GH releasing factor (1-40) free acid, used as the standard in the in vitro and in vivo tests (YADAIFTNSYRKVLGQLSARKLLQDIMSRQQGESNQERGA-OH; UniProt P01286 32-71, looked up, fragment) [reference compound] | 1.0

Reference: patent US5098995A, “GRF Analogs VIIA” (The Salk Institute For Biological Studies, priority 1989, dated 1992)
